Here are results for 25 compounds from patent publication US20260207602A1, “EGFR INHIBITORS” (Blueprint Medicines Corporation, priority 2022, published 2026).

The IC50 is the concentration needed to halve the response being measured.

One assay addresses T1, EGFR L858R (Homo sapiens, UniProt P00533, L858R).
T1 construct: purchased SignalChem E10-122BG
The assay is described as follows: Biochemical EGFR inhibition assay (Caliper mobility shift), EGFR L858R. The settings on record: biochemical Caliper mobility shift assay, EGFR L858R enzyme; read-out: Enz EGFR L858R IC50. In outline:
(§1)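 Compounds were titrated against enzyme phosphorylating a 5-FAM peptide (2.5 µM) in 100 mM HEPES, pH 7.5, 10 mM MgCl2, 1 mM DTT. ATP was held at 1.0 mM or at Km, and reactions ran at 25 °C until 10–20% conversion before EDTA quench. Apparent IC50 values come from percent activity plotted against log concentration.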

The next assay concerns the target T2, EGFR (d746-750) (Homo sapiens, UniProt P00533, DEL746-750).
T2 construct: purchased SignalChem E10-122JG
The assay is described as follows: Biochemical EGFR inhibition assay (Caliper mobility shift), EGFR (d746-750). The settings on record: biochemical Caliper mobility shift assay, EGFR Exon 19-del enzyme; read-out: Enz EGFR Exon 19-del IC50. In outline: as §1

For assay [1], the target named is intracellular phosphorylation of EGFR (Tyr1068) in PC-9 cells (Homo sapiens, UniProt P00533, DEL746-750). The assay is described as follows: PC-9 pEGFR AlphaLISA assay. The format is cell-based. As to conditions: 4 hours incubation, read-out: Phos EGFR PC9 IC50. In outline:
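PC-9 cells (EGFR del746-750) in phenol-free DMEM/10% FBS, adhered overnight, then exposed to 10-point 4-fold compound dilutions for 4 h at 37 °C. Lysates assayed for pEGFR Tyr1068 by AlphaLISA SureFire Ultra; IC50 from percent pEGFR inhibition vs log concentration.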

T1 sequence (P00533 25-1210 L858R): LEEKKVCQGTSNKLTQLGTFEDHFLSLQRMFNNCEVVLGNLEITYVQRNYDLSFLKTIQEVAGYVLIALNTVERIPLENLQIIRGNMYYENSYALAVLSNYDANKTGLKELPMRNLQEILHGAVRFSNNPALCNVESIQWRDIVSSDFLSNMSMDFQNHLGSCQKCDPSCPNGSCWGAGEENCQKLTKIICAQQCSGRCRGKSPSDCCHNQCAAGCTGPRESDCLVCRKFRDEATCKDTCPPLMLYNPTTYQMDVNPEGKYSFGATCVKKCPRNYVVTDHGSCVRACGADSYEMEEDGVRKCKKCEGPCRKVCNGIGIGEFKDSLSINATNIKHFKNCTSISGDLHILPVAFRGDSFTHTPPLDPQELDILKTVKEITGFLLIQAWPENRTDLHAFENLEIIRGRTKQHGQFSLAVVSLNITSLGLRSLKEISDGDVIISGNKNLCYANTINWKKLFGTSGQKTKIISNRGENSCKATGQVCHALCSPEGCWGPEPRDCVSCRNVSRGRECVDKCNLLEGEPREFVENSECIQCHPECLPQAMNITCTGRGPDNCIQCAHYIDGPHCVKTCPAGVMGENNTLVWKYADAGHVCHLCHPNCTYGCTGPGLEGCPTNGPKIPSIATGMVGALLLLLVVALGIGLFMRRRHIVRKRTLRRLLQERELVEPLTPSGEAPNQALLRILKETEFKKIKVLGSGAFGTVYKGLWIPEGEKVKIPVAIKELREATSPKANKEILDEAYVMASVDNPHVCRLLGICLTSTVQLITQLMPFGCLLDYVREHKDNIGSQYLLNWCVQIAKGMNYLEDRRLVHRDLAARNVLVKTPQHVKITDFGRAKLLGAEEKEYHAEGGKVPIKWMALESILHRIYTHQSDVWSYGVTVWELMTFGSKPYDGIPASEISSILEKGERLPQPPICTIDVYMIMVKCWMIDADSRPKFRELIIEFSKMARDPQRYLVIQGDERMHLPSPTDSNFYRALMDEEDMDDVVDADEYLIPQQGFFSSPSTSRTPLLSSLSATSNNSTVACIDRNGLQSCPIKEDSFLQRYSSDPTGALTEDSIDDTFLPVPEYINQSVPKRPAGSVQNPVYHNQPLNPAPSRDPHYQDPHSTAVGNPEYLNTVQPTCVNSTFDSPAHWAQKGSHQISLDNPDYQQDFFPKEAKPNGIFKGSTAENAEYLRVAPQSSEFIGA
Sequence of intracellular phosphorylation of EGFR (Tyr1068) in PC-9 cells (P00533 with tags, fused parts or gaps DEL746-750): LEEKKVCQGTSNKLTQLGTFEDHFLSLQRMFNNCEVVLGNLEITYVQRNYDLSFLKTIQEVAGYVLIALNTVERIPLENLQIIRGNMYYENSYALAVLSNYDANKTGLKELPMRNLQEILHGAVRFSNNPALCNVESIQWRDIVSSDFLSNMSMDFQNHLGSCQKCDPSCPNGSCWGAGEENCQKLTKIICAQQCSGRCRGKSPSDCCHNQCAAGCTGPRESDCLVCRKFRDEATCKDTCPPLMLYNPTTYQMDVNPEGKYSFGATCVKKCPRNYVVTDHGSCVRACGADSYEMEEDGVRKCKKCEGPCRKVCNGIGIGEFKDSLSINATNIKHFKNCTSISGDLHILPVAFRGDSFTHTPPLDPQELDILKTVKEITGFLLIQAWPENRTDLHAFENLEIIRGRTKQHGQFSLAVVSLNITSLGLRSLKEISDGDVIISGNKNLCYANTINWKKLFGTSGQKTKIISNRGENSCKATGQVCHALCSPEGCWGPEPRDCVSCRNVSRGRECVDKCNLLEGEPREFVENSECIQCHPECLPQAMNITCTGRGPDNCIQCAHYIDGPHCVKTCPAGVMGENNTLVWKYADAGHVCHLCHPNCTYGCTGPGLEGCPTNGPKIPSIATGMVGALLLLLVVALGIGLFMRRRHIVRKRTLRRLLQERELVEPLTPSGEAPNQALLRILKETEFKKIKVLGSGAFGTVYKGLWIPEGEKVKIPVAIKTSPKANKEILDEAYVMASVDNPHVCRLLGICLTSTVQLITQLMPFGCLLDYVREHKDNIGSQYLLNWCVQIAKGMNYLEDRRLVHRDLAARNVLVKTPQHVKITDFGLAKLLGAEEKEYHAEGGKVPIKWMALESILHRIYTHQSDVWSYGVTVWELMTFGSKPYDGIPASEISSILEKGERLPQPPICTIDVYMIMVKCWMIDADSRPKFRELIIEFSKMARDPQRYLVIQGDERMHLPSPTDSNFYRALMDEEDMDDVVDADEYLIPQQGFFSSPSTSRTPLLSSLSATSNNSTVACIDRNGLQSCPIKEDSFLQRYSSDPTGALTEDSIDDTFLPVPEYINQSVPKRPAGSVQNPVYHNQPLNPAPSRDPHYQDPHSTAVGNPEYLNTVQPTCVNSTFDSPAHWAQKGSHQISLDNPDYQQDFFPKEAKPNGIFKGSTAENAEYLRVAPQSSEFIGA
T2 sequence (P00533 with tags, fused parts or gaps DEL746-750 limits assumed): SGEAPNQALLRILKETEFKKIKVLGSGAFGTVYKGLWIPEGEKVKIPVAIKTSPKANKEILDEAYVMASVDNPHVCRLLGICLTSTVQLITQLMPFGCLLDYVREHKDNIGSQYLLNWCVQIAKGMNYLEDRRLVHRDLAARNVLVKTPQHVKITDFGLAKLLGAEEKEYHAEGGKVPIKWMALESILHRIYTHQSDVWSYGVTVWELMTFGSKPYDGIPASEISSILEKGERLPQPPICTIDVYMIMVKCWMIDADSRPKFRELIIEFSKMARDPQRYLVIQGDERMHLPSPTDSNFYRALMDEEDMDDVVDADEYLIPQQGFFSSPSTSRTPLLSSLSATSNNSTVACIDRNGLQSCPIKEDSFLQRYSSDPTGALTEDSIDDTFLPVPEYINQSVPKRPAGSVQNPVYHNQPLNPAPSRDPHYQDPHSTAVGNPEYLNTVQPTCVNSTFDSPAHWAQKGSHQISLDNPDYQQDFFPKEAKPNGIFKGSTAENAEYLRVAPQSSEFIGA

For `COc1nn(C)cc1-c1cc(O[C@@H]2CCN(C)C[C@H]2F)c2c(Nc3ccc4ncsc4c3)ncnc2c1` (single isomer, unassigned) [Example 359], the IC50 at EGFR L858R is ≤ 10 nM; at EGFR (d746-750) it was ≤ 10 nM; in assay [1] it was 10.1 to 50 nM.
For the compound `C[C@@H](Oc1cc(N2CC3CC(C2)O3)cc2ncnc(Nc3ccc4ncsc4c3)c12)C1COC1` [Example 129, N-(7-(6-oxa-3-azabicyclo[3.1.1]heptan-3-yl)-5-((R)-1-(oxetan-3-yl)ethoxy)quinazolin-4-yl)benzo[d]thiazol-6-amine], the IC50 (at EGFR L858R; at EGFR (d746-750); in assay [1]) was ≤ 10 nM in each case.
With `COC[C@@H](C)Oc1cc(N2CCN(CCO)CC2)cc2ncnc(Nc3ccc4ncsc4c3)c12` [Example 196, (R)-2-(4-(4-(benzo[d]thiazol-6-ylamino)-5-((1-methoxypropan-2-yl)oxy)quinazolin-7-yl)piperazin-1-yl)ethan-1-ol], the IC50 on EGFR L858R is ≤ 10 nM; on EGFR (d746-750), ≤ 10 nM; in assay [1], 10.1 to 50 nM.
On to `CN1CC[C@@H](Oc2cc(-c3cnn(C)c3)cc3ncnc(Nc4ccc5ncsc5c4F)c23)[C@H](F)C1` [Example 349, 7-fluoro-N-(5-(((3R,4R)-3-fluoro-1-methylpiperidin-4-yl)oxy)-7-(1-methyl-1H-pyrazol-4-yl)quinazolin-4-yl)benzo[d]thiazol-6-amine], for which the IC50 (at EGFR L858R; on EGFR (d746-750); in assay [1]) was ≤ 10 nM throughout.
For `C[C@@H](Oc1cc(-c2cnn(CC(C)(C)O)c2)cc2ncnc(Nc3ccc4ncsc4c3)c12)C1COC1` (single isomer, unassigned) [Example 127], the half-inhibitory concentration (IC50) (at EGFR L858R; at EGFR (d746-750); in assay [1]) was ≤ 10 nM throughout.
On to `Cc1ccnn1-c1cc(OC2CCOCC2)c2c(Nc3ccc4ncsc4c3)ncnc2c1` [Example 135, N-(7-(5-methyl-1H-pyrazol-1-yl)-5-((tetrahydro-2H-pyran-4-yl)oxy)quinazolin-4-yl)benzo[d]thiazol-6-amine], for which the IC50 is 10.1 to 50 nM on EGFR L858R, 10.1 to 50 nM at EGFR (d746-750) and > 50.1 nM in assay [1].
Consider `C[C@@H](Oc1cc(-c2cnn(C)c2)cc2ncnc(Nc3ccc4ncsc4c3)c12)[C@H]1CN(C)CCO1` (single isomer, unassigned) [Example 209], for which the IC50 (on EGFR L858R; at EGFR (d746-750); in assay [1]) was ≤ 10 nM each time.
For the compound `COc1nn(C)cc1-c1cc(O[C@@H]2COC[C@H]2F)c2c(Nc3ccc4ncsc4c3)ncnc2c1` (racemic) [Example 8, trans-N-(5-((-4-fluorotetrahydrofuran-3-yl)oxy)-7-(3-methoxy-1-methyl-1H-pyrazol-4-yl)quinazolin-4-yl)benzo[d]thiazol-6-amine], the IC50 at EGFR L858R is 10.1 to 50 nM; at EGFR (d746-750), ≤ 10 nM; in assay [1] it was 10.1 to 50 nM.
`Cn1ccc(-c2cc3ncnc(Nc4ccc5ncsc5c4)c3cc2NC2CCNCC2)n1` [Example 266, N4-(benzo[d]thiazol-6-yl)-7-(1-methyl-1H-pyrazol-3-yl)-N6-(piperidin-4-yl)quinazoline-4,6-diamine]: the figures for the IC50 (at EGFR L858R; at EGFR (d746-750); in assay [1]) were ≤ 10 nM, ≤ 10 nM and 10.1 to 50 nM, respectively.
On to `Cn1cc(-c2cc(O[C@H]3COC[C@@H]3O)c3c(Nc4ccc5ncsc5c4)ncnc3c2)cn1` (single isomer, unassigned) [Example A29], for which the IC50 on EGFR L858R was ≤ 10 nM; on EGFR (d746-750), ≤ 10 nM; in assay [1], 10.1 to 50 nM.
As to `COc1cn(C)nc1-c1cc(O[C@H]2CCCN(C)C2)c2c(Nc3ccc4ncsc4c3)ncnc2c1` [Example 245, (S)-N-(7-(4-methoxy-1-methyl-1H-pyrazol-3-yl)-5-((1-methylpiperidin-3-yl)oxy)quinazolin-4-yl)benzo[d]thiazol-6-amine], the IC50 was ≤ 10 nM on EGFR L858R, ≤ 10 nM at EGFR (d746-750) and 10.1 to 50 nM in assay [1].
For `Cn1cc(-c2cc(O[C@H]3CCOC[C@@H]3F)c3c(Nc4ccc5ncsc5c4)ncnc3c2)cn1` (single isomer, unassigned) [Example 45], the figures for the IC50 (on EGFR L858R; at EGFR (d746-750); in assay [1]) were ≤ 10 nM, ≤ 10 nM and 10.1 to 50 nM, respectively.
In the case of `CN(C)C1CCC1Oc1cc(-c2cnn(C)c2)cc2ncnc(Nc3ccc4ncsc4c3)c12` [Example 153, N-(5-((1S,2S)-2-(dimethylamino)cyclobutoxy)-7-(1-methyl-1H-pyrazol-4-yl)quinazolin-4-yl)benzo[d]thiazol-6-amine OR N-(5-((1R,2R)-2-(dimethylamino)cyclobutoxy)-7-(1-methyl-1H-pyrazol-4-yl)quinazolin-4-yl)benzo[d]thiazol-6-amine], the IC50 at EGFR L858R is ≤ 10 nM; at EGFR (d746-750) it was ≤ 10 nM; in assay [1] it was 10.1 to 50 nM.
Consider `C[C@@H]1CN(c2cc(O[C@H](C)C3COC3)c3c(Nc4ccc5ncsc5c4F)ncnc3c2)CCN1` (single isomer, unassigned) [Example 101], for which the IC50 (at EGFR L858R; on EGFR (d746-750); in assay [1]) was 10.1 to 50 nM each time.
With `CN1CC[C@H](Oc2cc(-c3cnn(C)c3)cc3ncnc(Nc4ccc5ncsc5c4)c23)C1` [Example 34, (S)-N-(7-(1-methyl-1H-pyrazol-4-yl)-5-((1-methylpyrrolidin-3-yl)oxy)quinazolin-4-yl)benzo[d]thiazol-6-amine], the IC50 was 10.1 to 50 nM on EGFR L858R, ≤ 10 nM on EGFR (d746-750) and 10.1 to 50 nM in assay [1].
Take `CC(C)(O)Cn1cc(-c2cc(OC3CCOCC3)c3c(Nc4ccc5ncsc5c4)ncnc3c2)cn1` [Example 190, 1-(4-(4-(benzo[d]thiazol-6-ylamino)-5-((tetrahydro-2H-pyran-4-yl)oxy)quinazolin-7-yl)-1H-pyrazol-1-yl)-2-methylpropan-2-ol]: the concentration for half-maximal inhibition (IC50) (at EGFR L858R; at EGFR (d746-750); in assay [1]) was ≤ 10 nM each time.
In the case of `CN1CC(Oc2cc(-c3cnn(C)c3)cc3ncnc(Nc4ccc5ncsc5c4)c23)C1` [Example 27, N-(7-(1-methyl-1H-pyrazol-4-yl)-5-((1-methylazetidin-3-yl)oxy)quinazolin-4-yl)benzo[d]thiazol-6-amine], the IC50 (at EGFR L858R; at EGFR (d746-750); in assay [1]) was 10.1 to 50 nM in each case.
Turning to `CN1CC[C@@H](Nc2cc3c(Nc4ccc5ncsc5c4)ncnc3cc2-c2cnn(C)c2)[C@H](F)C1` (single isomer, unassigned) [Example 326], the IC50 (on EGFR L858R; on EGFR (d746-750); in assay [1]) was ≤ 10 nM in each case.
In the case of `COc1cc2ncnc(Nc3ccc4ncsc4c3)c2cc1-c1cnn(C2CCN(C)C[C@H]2F)c1` (single isomer, unassigned) [Example 167], the figures for the 50% inhibitory concentration (IC50) (on EGFR L858R; at EGFR (d746-750); in assay [1]) were 10.1 to 50 nM, ≤ 10 nM and 10.1 to 50 nM, respectively.
Turning to `CN1CCC(Oc2cc(-c3cnn(C(F)F)c3)cc3ncnc(Nc4ccc5ncsc5c4)c23)CC1` [Example 189, N-(7-(1-(difluoromethyl)-1H-pyrazol-4-yl)-5-((1-methylpiperidin-4-yl)oxy)quinazolin-4-yl)benzo[d]thiazol-6-amine], the figures for the IC50 (at EGFR L858R; at EGFR (d746-750); in assay [1]) were 10.1 to 50 nM, ≤ 10 nM and 10.1 to 50 nM, respectively.
Turning to `Cn1cc(-c2cc(OCC#N)c3c(Nc4ccc5ncsc5c4)ncnc3c2)cn1` [Example 407, 2-((4-(benzo[d]thiazol-6-ylamino)-7-(1-methyl-1H-pyrazol-4-yl)quinazolin-5-yl)oxy)acetonitrile], the half-maximal inhibitory concentration (IC50) at EGFR L858R is ≤ 10 nM; on EGFR (d746-750) it was ≤ 10 nM; in assay [1], 10.1 to 50 nM.
In the case of `CC(Oc1cc(-c2cnn(C)c2)cc2ncnc(Nc3ccc4ncsc4c3)c12)C(F)F` (racemic) [Example 51, (rac)-N-(5-((1,1-difluoropropan-2-yl)oxy)-7-(1-methyl-1H-pyrazol-4-yl)quinazolin-4-yl)benzo[d]thiazol-6-amine], the IC50 (at EGFR L858R; on EGFR (d746-750); in assay [1]) was ≤ 10 nM throughout.
For `COc1nn(C)cc1-c1cc(OC2CCN(CC(F)F)CC2)c2c(Nc3ccc4ncsc4c3)ncnc2c1` [Example 386, N-(5-((1-(2,2-difluoroethyl)piperidin-4-yl)oxy)-7-(3-methoxy-1-methyl-1H-pyrazol-4-yl)quinazolin-4-yl)benzo[d]thiazol-6-amine], the IC50 (at EGFR L858R; at EGFR (d746-750); in assay [1]) was ≤ 10 nM in each case.
Turning to `COc1cc2ncnc(Nc3ccc4ncsc4c3F)c2cc1-c1cnn(C2CCN(C)CC2)c1` [Example 240, 7-fluoro-N-(7-methoxy-6-(1-(1-methylpiperidin-4-yl)-1H-pyrazol-4-yl)quinazolin-4-yl)benzo[d]thiazol-6-amine], the IC50 (on EGFR L858R; on EGFR (d746-750); in assay [1]) was ≤ 10 nM throughout.
As for `CC(C)Oc1cc(-c2cnn(C)c2)cc2ncnc(Nc3ccc4scnc4c3)c12` [Example 254, N-(5-isopropoxy-7-(1-methyl-1H-pyrazol-4-yl)quinazolin-4-yl)benzo[d]thiazol-5-amine], the IC50 was ≤ 10 nM at EGFR L858R, ≤ 10 nM at EGFR (d746-750) and 10.1 to 50 nM in assay [1].
